Experimental data taken from PubChem BioAssay (NCI).
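Tested at 5 concentrations; 48 h exposure; 96-well plates; endpoints linearly interpolated, else capped at highest concentration. TGI marks complete inhibition of growth.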

Columns and labels:
Assay in all cases: NCI-60 cell line screen, 48 h
RXF 393 renal = system: RXF 393 renal
LOX IMVI melanoma = system: LOX IMVI melanoma
NCI-H23 lung = system: NCI-H23 lung
KM12 colon = system: KM12 colon
UACC-257 melanoma = system: UACC-257 melanoma
COLO 205 colon = system: COLO 205 colon
SF-539 CNS = system: SF-539 CNS
ACHN renal = system: ACHN renal
SNB-19 CNS = system: SNB-19 CNS
OVCAR-5 ovarian = system: OVCAR-5 ovarian
HCC-2998 colon = system: HCC-2998 colon
A549 NSCLC = system: A549 NSCLC
K-562 leukemia = system: K-562 leukemia
SK-MEL-28 melanoma = system: SK-MEL-28 melanoma
CAKI-1 renal = system: CAKI-1 renal
HCT-116 colon = system: HCT-116 colon
HS 578T breast = system: HS 578T breast
PC-3 prostate = system: PC-3 prostate
MDA-MB-435 = system: MDA-MB-435
MDA-N = system: MDA-N

| Compound | TGI (RXF 393 renal) [µM] | TGI (LOX IMVI melanoma) [µM] | TGI (NCI-H23 lung) [µM] | TGI (KM12 colon) [µM] | TGI (UACC-257 melanoma) [µM] | TGI (COLO 205 colon) [µM] | TGI (SF-539 CNS) [µM] | TGI (ACHN renal) [µM] | TGI (SNB-19 CNS) [µM] | TGI (OVCAR-5 ovarian) [µM] | TGI (HCC-2998 colon) [µM] | TGI (A549 NSCLC) [µM] | TGI (K-562 leukemia) [µM] | TGI (SK-MEL-28 melanoma) [µM] | TGI (CAKI-1 renal) [µM] | TGI (HCT-116 colon) [µM] | TGI (HS 578T breast) [µM] | TGI (PC-3 prostate) [µM] | TGI (MDA-MB-435) [µM] | TGI (MDA-N) [µM] |
| --- | --- | --- | --- | --- | --- | --- | --- | --- | --- | --- | --- | --- | --- | --- | --- | --- | --- | --- | --- | --- |
| COC1=CC(=O)C2[C@H]3Cc4ccccc4[C@H]3C2(C)C1=O (some centres undefined) | > 100 | > 100 | > 100 | > 100 | > 100 | > 100 | > 100 | > 100 | > 100 | > 100 | > 100 | > 100 | > 100 | > 100 | > 100 |  |  |  |  |  |
| O=C1CSc2ccncc2N1 | > 100 | > 100 | > 100 |  | > 100 | > 100 | > 100 | > 100 | > 100 | > 100 | > 100 | > 100 | > 100 | > 100 | > 100 | > 100 |  |  |  |  |
| CC1=NN(c2ccccc2)C(=O)C1C(=O)C(=O)Nc1ccc(C)cc1C (centres undefined) | > 100 | > 100 | > 100 | > 100 | > 100 | > 100 | > 100 | > 100 | > 100 | > 100 | > 100 | > 100 | > 100 | > 100 | > 100 | > 100 | > 100 | > 100 |  |  |
| Clc1ccc(N=Cc2cc3cc(Br)ccc3nc2Cl)cc1 | > 50 | > 50 | > 50 | > 50 | > 50 | > 50 | > 50 |  |  | > 50 | > 50 |  | > 50 | > 50 | > 50 | > 50 |  | > 50 | > 50 | > 50 |
| N.N.N.N.O=S(=O)([O-])[O-].[Co+3].[OH3+].[OH3+] |  | > 100 | > 100 | > 100 | > 100 | > 100 | > 100 | > 100 | > 100 | > 100 |  | > 100 | > 100 | > 100 |  | > 100 |  |  |  |  |
| O=C1/C(=C/c2cccc3ccccc23)Cc2ccccc21 | 39.2 | > 100 | 65.8 | > 100 |  |  | 79.4 | > 100 | 64 | > 100 | > 100 | > 100 | > 100 | > 100 | > 100 |  | 73.3 | 54.3 |  |  |
| C[C@]12CCC(=O)C=C1CC[C@@H]1[C@@H]2CC[C@]2(C)C(=O)/C(=C\c3ccccc3)C[C@@H]12 | > 73.7 | > 51.5 | 62.5 | > 64.3 | > 100 | 55.9 | > 63.6 | > 100 | > 100 | > 100 | 35.9 | > 68 | > 100 | > 81.4 | > 100 | > 48.7 |  | > 53.3 | > 100 | 48 |
| CC(C)(Cc1ccccc1)Cc1cc(O)ccc1O | 28.9 | 26.8 | 38.7 | 32.1 | 29.5 | 39.1 | 27.1 | 66.1 | 48.7 | 88.8 | 39.1 | > 100 | 44.2 | 47.2 | 35.1 | 31.6 |  | > 100 | 49.2 | 56.6 |
| O=C1c2ccc3ccccc3c2CCC1N1CCCCC1 (centres undefined) | 46.5 | 33.7 | 40.2 | 31.6 | 35 | 42.1 | 28.8 | 31.5 | 40.8 | 37.9 |  | 36.3 | 35 | 33.1 | 29.5 | 31.7 | 44.9 | 42.3 | 32.3 |  |
| CCC1CCN=C(Cn2cc(C)c(=O)[nH]c2=O)N1 (centres undefined) | > 100 | > 100 | > 100 |  | > 100 | > 100 |  | > 100 | > 100 | > 100 | > 100 | > 100 |  | > 100 |  | > 100 | > 100 | > 100 |  | > 100 |
| O=C(Nc1ccc(F)cc1)c1cc2ccc(O)cc2oc1=Nc1cccc(F)c1 |  | 52.6 | 55.7 | > 100 | > 100 | > 100 | > 100 | > 100 |  | > 100 | > 100 |  | > 100 | > 100 | > 100 | > 100 |  | > 100 | > 100 | > 100 |
